The values below come from publication PMC9742383, “From tryptamine to the discovery of efficient multi-target directed ligands against cholinesterase-associated neurodegenerative disorders” (Frontiers in Pharmacology, 2022).

A short description of one data set: in vitro. More on the design: MTT cytotoxicity, absorbance at 570 nm, HT-22 mouse hippocampal neuronal cells. The conditions noted are these: mouse, read-out: IC50 ± SD / HT-22 ^a. How it is done:
The cell lines present in this study were purchased from the China Center for Type Collection (CCTCC, China). For cytotoxicity assay, HT-22, BV2, SH-SY5Y, HepG2, and LO2 cells were incubated in 96-well plates at the density of 5 × 10³ per well. After incubation for 12 h at 37°C, the tested compounds with the required concentrations were added to the corresponding wells and continuously incubated for 24 h at 37°C. Then, the prepared MTT (3-[4,5-dimethyl-2-thiazolyl]-2,5-diphenyl-2H-tetrazolium bromide) solution was added to each well and co-incubated for another 4 h at 37°C. Then, the supernatant was removed, and 100 μl DMSO was added to each well. The OD value of each well was detected at 570 nm using a microplate reader (Bio-Rad Laboratories, CA, United States). The IC50 values were calculated using IBM SPSS Statistics 25.0 software. All experiments were performed in triplicate, and the results were shown as the mean ± SD. In order to explore the applicability of the synthesized CTDs in neurological diseases, the neuronal cytotoxicity of the synthesized compounds was evaluated on mouse hippocampal neuronal cell line HT-22. […] In view of these CTDs endowed strong inhibition efficacy on BuChE, we preliminarily evaluated their safety range by comparing their IC50 values on cytotoxicity and BuChE inhibitory activity. […] Therefore, the series of compounds with dibenzyl groups, especially compounds bearing ring carbon alkyl chains (2f-2h) and tertiary amine residues (2j-2u) with little cytotoxicity on HT-22, can be considered as potential lead building blocks for further structure optimization to develop novel effective agents against neurological diseases.

The target of another data set is T1, AChE (Electrophorus electricus, UniProt O42275).
T1 construct: native enzyme, Type V-S lyophilized powder, Sigma-Aldrich
T1 sequence (O42275 24-633): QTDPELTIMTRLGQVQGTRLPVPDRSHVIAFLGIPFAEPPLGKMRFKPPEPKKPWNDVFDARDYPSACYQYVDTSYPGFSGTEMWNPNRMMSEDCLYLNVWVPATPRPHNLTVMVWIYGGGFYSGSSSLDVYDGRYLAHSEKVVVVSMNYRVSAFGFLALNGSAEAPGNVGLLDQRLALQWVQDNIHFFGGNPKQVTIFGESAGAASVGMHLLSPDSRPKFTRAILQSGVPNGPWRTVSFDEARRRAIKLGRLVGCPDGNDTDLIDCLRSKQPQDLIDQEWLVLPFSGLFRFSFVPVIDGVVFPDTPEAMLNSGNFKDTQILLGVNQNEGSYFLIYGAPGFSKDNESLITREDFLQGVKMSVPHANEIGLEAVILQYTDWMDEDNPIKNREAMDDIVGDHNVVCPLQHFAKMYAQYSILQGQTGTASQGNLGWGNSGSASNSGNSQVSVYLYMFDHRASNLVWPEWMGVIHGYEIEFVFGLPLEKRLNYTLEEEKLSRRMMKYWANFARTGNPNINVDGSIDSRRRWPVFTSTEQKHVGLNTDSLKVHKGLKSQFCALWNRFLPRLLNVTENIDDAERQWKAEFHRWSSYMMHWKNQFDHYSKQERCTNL
The experiment in a line: Ellman colorimetric assay. The class given is biochemical. (In general: In Ellman's method for cholinesterases, released thiocholine reacts with DTNB.)

A further data set concerns the target BuChE (Equus caballus, UniProt P81908). The experiment in a line: Ellman colorimetric assay. The class given is biochemical. More on the design: gene BCHE; native enzyme from equine serum, purchased from Sigma-Aldrich.
The mark [1] stands for this setting: ht-22 hippocampal neuronal cells.
[2] abbreviates: read-out: IC50 ± SD ^a / AChE ^a.
[3] abbreviates: read-out: IC50 ± SD ^a / BuChE ^a.

Where two headings read alike, the source gives them in different places.

Sequence of BuChE (P81908 whole entry): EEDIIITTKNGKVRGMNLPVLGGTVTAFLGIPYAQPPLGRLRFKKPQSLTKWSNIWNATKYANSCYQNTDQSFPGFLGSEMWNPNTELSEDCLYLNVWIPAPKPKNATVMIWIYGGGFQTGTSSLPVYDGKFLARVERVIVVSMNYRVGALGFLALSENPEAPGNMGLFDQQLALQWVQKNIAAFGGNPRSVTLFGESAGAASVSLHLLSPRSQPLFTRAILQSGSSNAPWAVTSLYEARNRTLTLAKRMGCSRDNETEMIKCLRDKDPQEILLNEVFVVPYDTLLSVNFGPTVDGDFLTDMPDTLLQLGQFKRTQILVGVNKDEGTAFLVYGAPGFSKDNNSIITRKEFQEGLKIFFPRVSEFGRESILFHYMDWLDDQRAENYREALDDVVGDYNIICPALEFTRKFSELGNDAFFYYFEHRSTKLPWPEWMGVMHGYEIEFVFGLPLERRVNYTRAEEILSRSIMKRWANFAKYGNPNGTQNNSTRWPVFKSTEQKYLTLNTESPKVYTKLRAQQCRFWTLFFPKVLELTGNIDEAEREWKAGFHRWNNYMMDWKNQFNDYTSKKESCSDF

With `CCCNC(=O)Oc1ccc2[nH]cc(CCN(Cc3ccccc3)Cc3ccccc3)c2c1` [2a, 3-(2-(dibenzylamino)ethyl)-1H-indol-5-yl propylcarbamate], in “in vitro” (ht-22), the CC50 at 24 h amounted to 51.58 ± 0.05 µM. Also, the IC50 is greater than 100 µM at AChE (read-out: IC50 ± SD / AChE ^a) and 0.0332 ± 0.00499 µM at BuChE (read-out: IC50 ± SD / BuChE ^a).

Turning to `CCCCNC(=O)Oc1ccc2[nH]cc(CCN(Cc3ccccc3)Cc3ccccc3)c2c1` [2b, 3-(2-(dibenzylamino)ethyl)-1H-indol-5-yl butylcarbamate], the CC50 at 24 h in “in vitro” (ht-22) worked out at 40.6 ± 1.12 µM. The IC50 at AChE (read-out: IC50 ± SD / AChE ^a) is greater than 100 µM; on BuChE (read-out: IC50 ± SD / BuChE ^a), 0.003 ± 0.00021 µM.

For the molecule `CCCCCCNC(=O)Oc1ccc2[nH]cc(CCN(Cc3ccccc3)Cc3ccccc3)c2c1` [2d, 3-(2-(dibenzylamino)ethyl)-1H-indol-5-yl hexylcarbamate], the CC50 at 24 h in the data set “in vitro” (ht-22) worked out at 37.6 ± 1.92 µM. Moreover, the IC50 at AChE (read-out: IC50 ± SD / AChE ^a) is greater than 100 µM; on BuChE (read-out: IC50 ± SD / BuChE ^a), 0.00147 ± 0.00015 µM.

For the molecule `O=C(NC1CCCC1)Oc1ccc2[nH]cc(CCN(Cc3ccccc3)Cc3ccccc3)c2c1` [2g, 3-(2-(dibenzylamino)ethyl)-1H-indol-5-yl cyclopentylcarbamate], in the data set “in vitro” (ht-22), the CC50 at 24 h is 57.3 ± 4.3 µM. Also, the IC50 was greater than 100 µM at AChE (read-out: IC50 ± SD / AChE ^a) and 0.0337 ± 0.00162 µM at BuChE (read-out: IC50 ± SD / BuChE ^a).

As to `O=C(Nc1ccccc1)Oc1ccc2[nH]cc(CCN(Cc3ccccc3)Cc3ccccc3)c2c1` [2i, 3-(2-(dibenzylamino)ethyl)-1H-indol-5-yl phenylcarbamate], the CC50 at 24 h in “in vitro” (ht-22) stood at 41.8 ± 2.31 µM. For the same molecule, the IC50 was greater than 100 µM on AChE (read-out: IC50 ± SD / AChE ^a) and 0.0558 ± 0.00314 µM at BuChE (read-out: IC50 ± SD / BuChE ^a).

With `CCN(CC)C(=O)Oc1ccc2[nH]cc(CCN(Cc3ccccc3)Cc3ccccc3)c2c1` [2k, 3-(2-(dibenzylamino)ethyl)-1H-indol-5-yl diethylcarbamate], the CC50 at 24 h in “in vitro” (ht-22) was 54.68 ± 0.42 µM. For the same molecule, the figures for the IC50 at AChE (read-out: IC50 ± SD / AChE ^a) and on BuChE (read-out: IC50 ± SD / BuChE ^a) were greater than 100 µM and 0.3209 ± 0.00206 µM, respectively.

As for `CCCN(CCC)C(=O)Oc1ccc2[nH]cc(CCN(Cc3ccccc3)Cc3ccccc3)c2c1` [2l, 3-(2-(dibenzylamino)ethyl)-1H-indol-5-yl dipropylcarbamate], the CC50 at 24 h in the data set “in vitro” (ht-22) came to 38.6 ± 0.9 µM. The IC50 at AChE (read-out: IC50 ± SD / AChE ^a) was greater than 100 µM; at BuChE (read-out: IC50 ± SD / BuChE ^a) it was 0.0159 ± 0.00055 µM.

With `O=C(Oc1ccc2[nH]cc(CCN(Cc3ccccc3)Cc3ccccc3)c2c1)N(c1ccccc1)c1ccccc1` [2n, 3-(2-(dibenzylamino)ethyl)-1H-indol-5-yl diphenylcarbamate], the CC50 at 24 h in “in vitro” (ht-22) was greater than 100 µM. Also, the IC50 on AChE (read-out: IC50 ± SD / AChE ^a) is greater than 100 µM; on BuChE (read-out: IC50 ± SD / BuChE ^a) it was 0.2623 ± 0.00248 µM.

`O=C(Oc1ccc2[nH]cc(CCN(Cc3ccccc3)Cc3ccccc3)c2c1)N1CCCCC1` [2s, 3-(2-(dibenzylamino)ethyl)-1H-indol-5-yl piperidine-1-carboxylate]: in the data set “in vitro” (ht-22), the CC50 at 24 h is 42.7 ± 2.09 µM. Also, the IC50 was greater than 100 µM on AChE (read-out: IC50 ± SD / AChE ^a) and 0.0334 ± 0.00521 µM on BuChE (read-out: IC50 ± SD / BuChE ^a).

In the case of `CCCNC(=O)Oc1ccc2[nH]cc(CCNCc3ccccc3)c2c1` [3a, 3-(2-(benzylamino)ethyl)-1H-indol-5-yl propylcarbamate], in the data set “in vitro” (setting [1]), the CC50 at 24 h is 31.3 ± 2.32 µM. For the same molecule, the IC50 on AChE (setting [2]) stood at 1.95 µM; at BuChE (setting [3]) it was 0.0182 ± 0.00068 µM.

Regarding `CCCCNC(=O)Oc1ccc2[nH]cc(CCNCc3ccccc3)c2c1` [3b, 3-(2-(benzylamino)ethyl)-1H-indol-5-yl butylcarbamate], the CC50 at 24 h in “in vitro” (setting [1]) was 18.5 ± 0.81 µM. The IC50 stood at 1.69 µM on AChE (setting [2]) and 0.0237 ± 0.00118 µM at BuChE (setting [3]).

For the molecule `CCCCCCNC(=O)Oc1ccc2[nH]cc(CCNCc3ccccc3)c2c1` [3d, 3-(2-(benzylamino)ethyl)-1H-indol-5-yl hexylcarbamate], in “in vitro” (setting [1]), the CC50 at 24 h came out at 16.3 ± 1.19 µM. Also, the results for the IC50 on AChE (setting [2]) and at BuChE (setting [3]) were 2.44 µM and 0.019 ± 0.00029 µM, respectively.

In the case of `CCCCCCCNC(=O)Oc1ccc2[nH]cc(CCNCc3ccccc3)c2c1` [3e, 3-(2-(benzylamino)ethyl)-1H-indol-5-yl heptylcarbamate], the CC50 at 24 h in the data set “in vitro” (setting [1]) came to 6.49 ± 0.34 µM. The figures for the IC50 at AChE (setting [2]) and on BuChE (setting [3]) were 1.13 µM and 0.0336 ± 0.00164 µM, respectively.

On to `O=C(NC1CCCC1)Oc1ccc2[nH]cc(CCNCc3ccccc3)c2c1` [3g, 3-(2-(benzylamino)ethyl)-1H-indol-5-yl cyclopentylcarbamate], for which the CC50 at 24 h in “in vitro” (setting [1]) was found to be 18.2 ± 0.95 µM. The IC50 is 27.2 µM on AChE (setting [2]) and 0.0136 ± 0.0007 µM on BuChE (setting [3]).

For `O=C(NC1CCCCC1)Oc1ccc2[nH]cc(CCNCc3ccccc3)c2c1` [3h, 3-(2-(benzylamino)ethyl)-1H-indol-5-yl cyclohexylcarbamate], the CC50 at 24 h in the data set “in vitro” (setting [1]) was 11.6 ± 0.34 µM. Further, the IC50 is greater than 100 µM at AChE (setting [2]) and 0.0435 ± 0.00335 µM on BuChE (setting [3]).

Consider `O=C(Nc1ccccc1)Oc1ccc2[nH]cc(CCNCc3ccccc3)c2c1` [3i, 3-(2-(benzylamino)ethyl)-1H-indol-5-yl phenylcarbamate], for which, in the data set “in vitro” (setting [1]), the CC50 at 24 h came out at 18.4 ± 0.43 µM. In addition, the results for the IC50 on AChE (setting [2]) and at BuChE (setting [3]) were 23.3 µM and 0.11 ± 0.00522 µM, respectively.

For `CN(C)C(=O)Oc1ccc2[nH]cc(CCNCc3ccccc3)c2c1` [3j, 3-(2-(benzylamino)ethyl)-1H-indol-5-yl dimethylcarbamate], the CC50 at 24 h in the data set “in vitro” (setting [1]) was 21.7 ± 0.72 µM. Besides, the IC50 at AChE (setting [2]) turned out to be 1.91 µM; on BuChE (setting [3]), 0.132 ± 0.00359 µM.

As for `CCN(CC)C(=O)Oc1ccc2[nH]cc(CCNCc3ccccc3)c2c1` [3k, 3-(2-(benzylamino)ethyl)-1H-indol-5-yl diethylcarbamate], the CC50 at 24 h in “in vitro” (setting [1]) was 16 ± 0.39 µM. The IC50 is greater than 100 µM on AChE (setting [2]) and 0.0725 ± 0.00655 µM at BuChE (setting [3]).

On to `CCCN(CCC)C(=O)Oc1ccc2[nH]cc(CCNCc3ccccc3)c2c1` [3l, 3-(2-(benzylamino)ethyl)-1H-indol-5-yl dipropylcarbamate], for which, in the data set “in vitro” (setting [1]), the CC50 at 24 h amounted to 6.31 ± 0.39 µM. Further, the figures for the IC50 on AChE (setting [2]) and at BuChE (setting [3]) were greater than 100 µM and 0.044 ± 0.00184 µM, respectively.

On to `CCCCN(CCCC)C(=O)Oc1ccc2[nH]cc(CCNCc3ccccc3)c2c1` [3m, 3-(2-(benzylamino)ethyl)-1H-indol-5-yl dibutylcarbamate], for which the CC50 at 24 h in the data set “in vitro” (setting [1]) worked out at 3.87 ± 0.35 µM. Also, the values for the IC50 at AChE (setting [2]) and on BuChE (setting [3]) were 19.8 µM and 0.0974 ± 0.00853 µM, respectively.

`O=C(Oc1ccc2[nH]cc(CCNCc3ccccc3)c2c1)N(c1ccccc1)c1ccccc1` [3n, 3-(2-(benzylamino)ethyl)-1H-indol-5-yl diphenylcarbamate]: in “in vitro” (setting [1]), the CC50 at 24 h stood at 0.54 ± 0.03 µM. Besides, the results for the IC50 at AChE (setting [2]) and at BuChE (setting [3]) were greater than 100 µM and 0.156 ± 0.00358 µM, respectively.

For the molecule `CON(C)C(=O)Oc1ccc2[nH]cc(CCNCc3ccccc3)c2c1` [3o, 3-(2-(benzylamino)ethyl)-1H-indol-5-yl methoxy(methyl)carbamate], the CC50 at 24 h in the data set “in vitro” (setting [1]) amounted to 50.4 ± 1.07 µM. Further, the IC50 at AChE (setting [2]) is 2.61 µM; at BuChE (setting [3]), 0.0588 ± 0.00292 µM.

Regarding `CN(C(=O)Oc1ccc2[nH]cc(CCNCc3ccccc3)c2c1)c1ccccc1` [3p, 3-(2-(benzylamino)ethyl)-1H-indol-5-yl methyl(phenyl)carbamate], the CC50 at 24 h in the data set “in vitro” (setting [1]) was 11 ± 1.12 µM. For the same molecule, the IC50 at AChE (setting [2]) turned out to be 7.05 µM; on BuChE (setting [3]) it was 0.0254 ± 0.00027 µM.

Consider `O=C(Oc1ccc2[nH]cc(CCNCc3ccccc3)c2c1)N1CCC1` [3q, 3-(2-(benzylamino)ethyl)-1H-indol-5-yl azetidine-1-carboxylate], for which the CC50 at 24 h in “in vitro” (setting [1]) worked out at 57.8 ± 2.88 µM. Besides, the IC50 was found to be 0.482 ± 0.00599 µM at AChE (setting [2]) and 0.00258 ± 0.00013 µM on BuChE (setting [3]).

As to `O=C(Oc1ccc2[nH]cc(CCNCc3ccccc3)c2c1)N1CCCC1` [3r], the CC50 at 24 h in “in vitro” (setting [1]) was found to be 31.7 ± 1.64 µM. The IC50 at AChE (setting [2]) is 1.82 µM; at BuChE (setting [3]), 0.0405 ± 0.00179 µM.

On to `O=C(Oc1ccc2[nH]cc(CCNCc3ccccc3)c2c1)N1CCCCCC1` [3t, 3-(2-(benzylamino)ethyl)-1H-indol-5-yl azepane-1-carboxylate], for which, in the data set “in vitro” (setting [1]), the CC50 at 24 h came out at 11.9 ± 0.39 µM. Further, the IC50 on AChE (setting [2]) was greater than 100 µM; on BuChE (setting [3]), 0.0232 ± 0.00094 µM.
